Source: PMC6150197, “NeoBOMB1, a GRPR-Antagonist for Breast Cancer Theragnostics: First Results of a Preclinical Study with [^67Ga]NeoBOMB1 in T-47D Cells and Tumor-Bearing Mice” (Molecules : A Journal of Synthetic Chemistry and Natural …, 2017)
Like-named read-outs stand apart in the source and are kept apart here. Square brackets hold non-standard residues; d marks the D form. * marks the point of attachment. DOTA = O=C(O)CN1CCN(CC(=O)O)CCN(CC(=O)*)CCN(CC(=O)O)CC1

Target: T1, GRPR (Homo sapiens, UniProt P30550)
T1 construct: Human ductal breast carcinoma T-47D cells endogenously expressing the GRPR were used in all biological assays; endogenous in cells; host or cells: T-47D human ductal breast carcinoma cells (live, adherent, 4 °C)
Assay: Competition binding against [^125I-Tyr^4]BBN in T-47D cells
Procedure: Methionine was added to the purified radioligand solution to prevent re-oxidation of Met^14 to the corresponding sulfoxide and the resulting stock solution in 0.1% BSA-PBS was kept at −20 °C; aliquots thereof were used for competition binding assays (specific activity of 2.2 Ci/μmol). Samples were measured for radioactivity in an automatic well-type gamma counter (NaI(Tl)] crystal, Canberra Packard Auto-Gamma 5000 series instrument, Schwadorf, Austria).
Human ductal breast carcinoma T-47D cells endogenously expressing the GRPR were used in all biological assays [14, 22, 23]. Cells were cultured in RPMI supplemented with 10% FBS, 100 U/mL penicillin and 100 µg/mL streptomycin, and kept in a controlled humidified atmosphere containing 5% CO2 at 37 °C. Passages were performed weekly using a trypsin/EDTA (0.05%/0.02% w/v) solution.
Cells were seeded in 12-well plates 24 h in advance (0.6 × 10^6 cells per well). On the day of the experiment, cells were placed on ice and washed with chilled washing medium (2 × 1 mL, RPMI supplemented with 1% heat inactivated FBS). […] Lysates were collected, combined and counted for their radioactivity content in a γ-counter. The IC50 values were calculated adopting nonlinear regression according to a one-site model applying the PRISM^TM 2 program (GraphPad Software, San Diego, CA, USA). […]

T1 sequence (P30550 whole entry): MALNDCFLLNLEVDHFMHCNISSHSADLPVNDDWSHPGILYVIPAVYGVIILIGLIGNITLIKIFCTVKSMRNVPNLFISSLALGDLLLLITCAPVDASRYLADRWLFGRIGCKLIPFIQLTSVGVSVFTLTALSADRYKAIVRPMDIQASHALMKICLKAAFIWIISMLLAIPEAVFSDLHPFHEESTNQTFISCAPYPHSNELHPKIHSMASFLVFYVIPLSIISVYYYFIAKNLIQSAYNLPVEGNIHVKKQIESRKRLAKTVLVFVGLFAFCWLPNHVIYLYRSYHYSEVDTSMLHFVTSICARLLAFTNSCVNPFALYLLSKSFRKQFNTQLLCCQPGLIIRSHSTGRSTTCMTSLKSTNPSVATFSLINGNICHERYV

| Compound | IC50 | IC50 (live T-47D cells, 3 h incubation at 4 °C, one-site model, mean ± sd, n = 3 (n = 5 for [Tyr^4]BBN), in triplicate, read-out: IC50, displacement of [^125I-Tyr^4]BBN from GRPR-sites on T-47D cells) |
| --- | --- | --- |
| CC(C)CC(CC(C)C)NC(=O)[C@H](Cc1cnc[nH]1)NC(=O)CNC(=O)[C@@H](NC(=O)[C@H](C)NC(=O)[C@H](Cc1c[nH]c2ccccc12)NC(=O)[C@H](CCC(N)=O)NC(=O)[C@@H](Cc1ccccc1)NC(=O)COCC(=O)Nc1ccc(CNC(=O)CN2CCN(CC(=O)O)CCN(CC(=O)O)CCN(CC(=O)O)CC2)cc1)C(C)C [NeoBOMB1, DOTA-p-aminomethylaniline-diglycolic acid-DPhe-Gln-Trp-Ala-Val-Gly-His-NH-CH[CH2-CH(CH3)2]2] | 2.2 ± 0.2 nM | – |
| [^natGa]NeoBOMB1: NeoBOMB1 metalated with ^natGa ({DOTA-p‑aminomethylaniline-diglycolic acid}-[dF]QWAVGH-{2,6‑dimethylheptan‑4‑yl amide}; also: DOTA chelating natGa(III)) | – | 2.5 ± 0.2 nM |
